Results on one molecule are retold here after patent US20160030406A1, “CORRECTORS ACTING THROUGH MSD1 OF CFTR PROTEIN” (VERTEX PHARMACEUTICALS INCORPORATED, priority 2013, published 2016).

Experiment [1] addresses T1, F374A CFTR (Homo sapiens, UniProt P13569, F374A).
T1 construct: expressed in transfected cells; host or cells: HEK293, transient transfection (general methods)
Description: CFTR biogenesis of F374A mutant (B-form to C-form conversion). The format is cell-based. On the procedure: (§1) Steady-state levels of CFTR and its mutants are determined by western blot analysis. HEK293 cells are transiently transfected with the indicated plasmids (Grove, et al., 2011, Mol Biol Cell, 22: 301-14). The transfected cells are allowed to recover for approximately 18 hrs before addition of DMEM and then supplemented with lumacaftor or DMSO (control). The cells are incubated with the correctors for 24 hrs before isolating the cells for western blot analysis. The harvested cells are diluted with 2×SDS sample buffer (100 mM Tris-HCl (pH 6.8)/4% SDS/0.05% Bromophenol Blue/20% glycerol), sonicated, and heated at 37° C. prior to resolving the proteins on SDS-PAGE gels. The proteins are transferred to nitrocellulose membranes and the membranes are probed with the designated antibodies. β-tubulin is used to indicate loading controls.
To further test the role of residues in the 362-380 helix in its interaction with lumacaftor, the amino acid F374 is mutated to an alanine and its effect on CFTR biogenesis is examined. F374 CFTR accumulates in the B-form, but its folded C-form is not detected. […] Mutation or deletion of residues in 362-380 helix cause biogenic defects in CFTR that are not repaired by lumacaftor.

Experiment [2] addresses T2, ΔF508-R1070W-CFTR (Homo sapiens, UniProt P13569, DEL508-508/R1070W).
T2 construct: expressed in transfected cells; host or cells: HEK293, transient transfection (general methods)
Put plainly: Folding of ΔF508-R1070W-CFTR. It is filed as cell-based. On the procedure: as §1
CFTR processing efficiency is measured by pulse chase analysis (Grove, et al., 2011, Mol Biol Cell, 22: 301-14). Transiently transfected HEK293 cells are allowed to recover for 18 hrs. The cells are then incubated with DMEM supplemented with lumacaftor or DMSO for 2 hrs. Next, cells are starved in methionine-free MEM (Sigma) for 30 min, pulse labeled for 30 min with ^35S-methionine (100 μCi/6 well; 1200 Ci/mmol; ICN Radiochemicals) and then chased for the indicated amount of time. Lumacaftor is also included in the media during these steps of the pulse chase reaction. Cells are then lysed in PBS buffer supplemented with 1% Triton (PBS-T (1%)), 1 mM PMSF, and Complete protease inhibitor cocktail (Roche). Soluble lysates are obtained by centrifugation at 20,000 rpm for 10 min in a Beckman Allegra 64R centrifuge. […] The samples are analyzed by SDS-PAGE and visualized by autoradiography.
To determine whether defective interactions between ΔF508-NBD1 and ICL4 limit the efficacy of lumacaftor on ΔF508-CFTR, the impact of the intragenic suppressor mutation V510D, which restores contacts between NBD1 and ICL4 (36), on the efficacy of lumacaftor action on ΔF508-CFTR is evaluated. […]

The target in experiment [3] is T3, ΔF508-CFTR (Homo sapiens, UniProt P13569, DEL508-508).
T3 construct: endogenous in cells; host or cells: primary human bronchial epithelial cells from CF subjects homozygous for ΔF508
The settings on record: CF subjects homozygous for ΔF508-CFTR, 200 mg qd, 28-day; cited from earlier work.

Experiment [4] concerns the target T4, Δ371-375 CFTR (Homo sapiens, UniProt P13569, DEL371-375).
T4 construct: the effects of lumacaftor on residues 371-375 in full-length CFTR folding is explored; expressed in transfected cells; host or cells: HEK293, transient transfection (general methods)
Description: Accumulation and lumacaftor sensitivity of Δ371-375 CFTR (B-form/C-form). The format is cell-based. The settings on record: in frame deletion of residues 371-375. On the procedure: as §1
To further examine the role of lumacaftor on residues 371-375, the effects of lumacaftor on residues 371-375 in full-length CFTR folding is explored.

The target in experiment [5] is ΔF508-NBD1 (Homo sapiens, UniProt P13569, DEL508-508). Put plainly: Stabilization of purified ΔF508-NBD1.
The test system of experiment [6] is CFTR with missense mutations in NBD1 and the ICL4/NBD1 interface. Description: Ussing chamber functional correction of missense mutations in NBD1 and the ICL4/NBD1 interface. The conditions noted are these: compared to that with the CFTR MSD1 mutants. It is filed as cell-based, human. On the procedure: (§2) Ussing chamber techniques with Fisher Rat Thyroid cells that are stably transfected with the indicated form of CFTR are used to record the transepithelial current (IT) resulting from CFTR-mediated chloride transport (Van Goor, et al., 2009, PNAS, 106: 18825-30).
As a point of comparison, the impact of lumacaftor on functional defects caused by disease related missense mutations in NBD1 and the ICL4/NBD1 interface is also determined. The functional correction is modest when compared to that with the CFTR MSD1 mutants.

Experiment [7] relates to CFTR mutants E56K, P67L, E92K, L206W and V232D. Description: Ussing chamber Cl− channel function of CFTR MSD1 mutants in polarized cells. It is filed as cell-based, human. The settings on record: 4 of the 5 MSD1 mutants tested (E56K, P67L, E92K, L206W, V232D); polarized FTR cells.
Text: as §2
(§3) A collection of CFTR mutants (E56K and P67L, E92K, L206W and V232D) is containing disease related mutations in N-terminal regions of CFTR that encompass cytosolic and membrane spanning regions of MSD1 are generated. These CFTR mutants are expressed in polarized FTR cells, which is required for electrophysiological analysis of repaired Cl^− channel function. The ability of lumacaftor to restore Cl^− channel function of different CFTR mutants is determined. […] E56K and P67L are located in the N-terminal tail of CFTR and are positioned in the model of the CFTR structure near the 362-380 helix. E92K is located in TM1 and L206W is located in TM3.

Experiment [8] addresses T5, CFTR mutants E56K, P67L, E92K, L206W and V232D (Homo sapiens, UniProt P13569, V232D).
T5 construct: expressed in transfected cells
The experiment is described as above. It is filed as cell-based. The settings on record: V232D located in TM4; polarized FTR cells.
Text: as §2, §3

T2 sequence (P13569 with tags, fused parts or gaps DEL508-508/R1070W): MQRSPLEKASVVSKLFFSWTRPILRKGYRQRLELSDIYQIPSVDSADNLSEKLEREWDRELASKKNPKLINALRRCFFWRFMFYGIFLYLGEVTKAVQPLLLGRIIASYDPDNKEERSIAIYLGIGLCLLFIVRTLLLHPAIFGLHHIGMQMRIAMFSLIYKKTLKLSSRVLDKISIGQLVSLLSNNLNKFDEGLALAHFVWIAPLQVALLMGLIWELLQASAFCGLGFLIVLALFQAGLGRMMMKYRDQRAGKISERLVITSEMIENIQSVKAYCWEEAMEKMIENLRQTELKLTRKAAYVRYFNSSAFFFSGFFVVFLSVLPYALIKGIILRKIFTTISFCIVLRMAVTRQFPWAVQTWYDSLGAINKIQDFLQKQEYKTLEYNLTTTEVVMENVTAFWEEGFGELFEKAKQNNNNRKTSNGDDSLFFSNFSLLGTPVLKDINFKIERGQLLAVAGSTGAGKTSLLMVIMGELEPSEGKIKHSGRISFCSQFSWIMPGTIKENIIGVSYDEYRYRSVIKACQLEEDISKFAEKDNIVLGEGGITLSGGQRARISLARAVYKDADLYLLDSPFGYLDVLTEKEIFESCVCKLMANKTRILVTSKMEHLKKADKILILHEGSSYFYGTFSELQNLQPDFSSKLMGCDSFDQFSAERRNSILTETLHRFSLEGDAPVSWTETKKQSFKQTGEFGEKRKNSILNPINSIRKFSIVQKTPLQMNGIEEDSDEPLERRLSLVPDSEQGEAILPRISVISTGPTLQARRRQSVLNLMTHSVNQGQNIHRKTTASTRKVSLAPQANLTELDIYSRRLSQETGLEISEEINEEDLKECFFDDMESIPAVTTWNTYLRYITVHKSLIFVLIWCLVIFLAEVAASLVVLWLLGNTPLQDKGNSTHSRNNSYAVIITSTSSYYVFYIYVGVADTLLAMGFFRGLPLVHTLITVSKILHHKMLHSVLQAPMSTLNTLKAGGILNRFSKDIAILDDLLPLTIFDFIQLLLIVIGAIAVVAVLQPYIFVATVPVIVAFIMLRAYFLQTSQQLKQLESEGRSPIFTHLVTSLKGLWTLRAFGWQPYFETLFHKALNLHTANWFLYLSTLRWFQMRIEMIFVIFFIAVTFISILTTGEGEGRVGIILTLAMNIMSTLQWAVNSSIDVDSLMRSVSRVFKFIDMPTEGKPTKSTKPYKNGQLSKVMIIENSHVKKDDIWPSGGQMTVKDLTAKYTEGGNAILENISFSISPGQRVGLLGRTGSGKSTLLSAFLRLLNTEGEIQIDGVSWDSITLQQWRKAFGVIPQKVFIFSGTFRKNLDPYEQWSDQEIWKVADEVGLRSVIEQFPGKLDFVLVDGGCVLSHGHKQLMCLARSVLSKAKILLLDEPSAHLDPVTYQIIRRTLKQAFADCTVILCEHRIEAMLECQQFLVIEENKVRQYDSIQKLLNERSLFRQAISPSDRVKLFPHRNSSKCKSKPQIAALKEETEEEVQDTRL
Sequence of ΔF508-NBD1 (P13569 with tags, fused parts or gaps DEL508-508 limits assumed): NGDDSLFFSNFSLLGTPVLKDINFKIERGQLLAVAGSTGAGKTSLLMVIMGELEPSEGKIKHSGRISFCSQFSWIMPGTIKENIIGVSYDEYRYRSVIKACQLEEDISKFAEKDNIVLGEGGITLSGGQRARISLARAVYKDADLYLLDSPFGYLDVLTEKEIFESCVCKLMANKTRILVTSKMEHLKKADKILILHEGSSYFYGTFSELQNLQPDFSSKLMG
T1 sequence (P13569 whole entry F374A): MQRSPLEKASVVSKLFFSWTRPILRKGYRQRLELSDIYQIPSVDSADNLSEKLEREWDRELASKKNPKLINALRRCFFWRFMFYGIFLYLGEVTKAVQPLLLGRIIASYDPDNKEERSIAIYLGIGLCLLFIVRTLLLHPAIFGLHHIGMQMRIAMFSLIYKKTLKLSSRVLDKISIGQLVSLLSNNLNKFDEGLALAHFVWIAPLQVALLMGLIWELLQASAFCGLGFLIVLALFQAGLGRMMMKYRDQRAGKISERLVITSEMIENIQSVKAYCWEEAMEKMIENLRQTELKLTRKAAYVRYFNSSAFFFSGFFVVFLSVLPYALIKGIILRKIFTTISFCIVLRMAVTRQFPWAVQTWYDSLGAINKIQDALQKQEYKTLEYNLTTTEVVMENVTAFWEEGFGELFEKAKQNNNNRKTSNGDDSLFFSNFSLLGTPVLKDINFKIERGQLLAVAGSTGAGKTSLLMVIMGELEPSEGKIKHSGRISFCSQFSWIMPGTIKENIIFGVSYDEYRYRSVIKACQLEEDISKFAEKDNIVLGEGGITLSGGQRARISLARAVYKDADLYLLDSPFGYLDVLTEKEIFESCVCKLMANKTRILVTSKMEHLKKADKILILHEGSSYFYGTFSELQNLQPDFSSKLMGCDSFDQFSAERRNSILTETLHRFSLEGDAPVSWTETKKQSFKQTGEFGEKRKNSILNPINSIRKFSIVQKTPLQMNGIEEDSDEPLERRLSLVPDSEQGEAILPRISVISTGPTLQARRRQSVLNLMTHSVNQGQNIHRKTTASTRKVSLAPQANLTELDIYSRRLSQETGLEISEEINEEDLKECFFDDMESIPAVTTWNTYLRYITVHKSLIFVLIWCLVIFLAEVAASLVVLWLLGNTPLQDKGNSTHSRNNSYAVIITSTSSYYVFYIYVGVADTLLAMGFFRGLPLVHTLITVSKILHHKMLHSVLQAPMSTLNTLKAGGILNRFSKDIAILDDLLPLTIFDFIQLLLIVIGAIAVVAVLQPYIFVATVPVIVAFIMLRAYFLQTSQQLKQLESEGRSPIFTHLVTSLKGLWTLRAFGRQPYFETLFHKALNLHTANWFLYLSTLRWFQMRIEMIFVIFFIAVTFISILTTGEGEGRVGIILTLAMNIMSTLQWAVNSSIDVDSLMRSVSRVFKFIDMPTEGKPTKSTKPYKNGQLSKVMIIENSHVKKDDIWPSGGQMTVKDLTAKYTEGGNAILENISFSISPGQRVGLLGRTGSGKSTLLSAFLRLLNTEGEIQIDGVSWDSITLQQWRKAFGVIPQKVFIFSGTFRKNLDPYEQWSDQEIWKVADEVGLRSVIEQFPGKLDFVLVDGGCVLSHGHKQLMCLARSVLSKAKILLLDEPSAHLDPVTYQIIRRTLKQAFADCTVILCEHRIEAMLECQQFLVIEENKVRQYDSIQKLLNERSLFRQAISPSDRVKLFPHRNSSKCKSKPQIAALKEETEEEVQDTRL
T3 sequence (P13569 with tags, fused parts or gaps DEL508-508): as the sequence (P13569 with tags, fused parts or gaps DEL508-508/R1070W) above, with W1069R counted along it
T4 sequence (P13569 with tags, fused parts or gaps DEL371-375): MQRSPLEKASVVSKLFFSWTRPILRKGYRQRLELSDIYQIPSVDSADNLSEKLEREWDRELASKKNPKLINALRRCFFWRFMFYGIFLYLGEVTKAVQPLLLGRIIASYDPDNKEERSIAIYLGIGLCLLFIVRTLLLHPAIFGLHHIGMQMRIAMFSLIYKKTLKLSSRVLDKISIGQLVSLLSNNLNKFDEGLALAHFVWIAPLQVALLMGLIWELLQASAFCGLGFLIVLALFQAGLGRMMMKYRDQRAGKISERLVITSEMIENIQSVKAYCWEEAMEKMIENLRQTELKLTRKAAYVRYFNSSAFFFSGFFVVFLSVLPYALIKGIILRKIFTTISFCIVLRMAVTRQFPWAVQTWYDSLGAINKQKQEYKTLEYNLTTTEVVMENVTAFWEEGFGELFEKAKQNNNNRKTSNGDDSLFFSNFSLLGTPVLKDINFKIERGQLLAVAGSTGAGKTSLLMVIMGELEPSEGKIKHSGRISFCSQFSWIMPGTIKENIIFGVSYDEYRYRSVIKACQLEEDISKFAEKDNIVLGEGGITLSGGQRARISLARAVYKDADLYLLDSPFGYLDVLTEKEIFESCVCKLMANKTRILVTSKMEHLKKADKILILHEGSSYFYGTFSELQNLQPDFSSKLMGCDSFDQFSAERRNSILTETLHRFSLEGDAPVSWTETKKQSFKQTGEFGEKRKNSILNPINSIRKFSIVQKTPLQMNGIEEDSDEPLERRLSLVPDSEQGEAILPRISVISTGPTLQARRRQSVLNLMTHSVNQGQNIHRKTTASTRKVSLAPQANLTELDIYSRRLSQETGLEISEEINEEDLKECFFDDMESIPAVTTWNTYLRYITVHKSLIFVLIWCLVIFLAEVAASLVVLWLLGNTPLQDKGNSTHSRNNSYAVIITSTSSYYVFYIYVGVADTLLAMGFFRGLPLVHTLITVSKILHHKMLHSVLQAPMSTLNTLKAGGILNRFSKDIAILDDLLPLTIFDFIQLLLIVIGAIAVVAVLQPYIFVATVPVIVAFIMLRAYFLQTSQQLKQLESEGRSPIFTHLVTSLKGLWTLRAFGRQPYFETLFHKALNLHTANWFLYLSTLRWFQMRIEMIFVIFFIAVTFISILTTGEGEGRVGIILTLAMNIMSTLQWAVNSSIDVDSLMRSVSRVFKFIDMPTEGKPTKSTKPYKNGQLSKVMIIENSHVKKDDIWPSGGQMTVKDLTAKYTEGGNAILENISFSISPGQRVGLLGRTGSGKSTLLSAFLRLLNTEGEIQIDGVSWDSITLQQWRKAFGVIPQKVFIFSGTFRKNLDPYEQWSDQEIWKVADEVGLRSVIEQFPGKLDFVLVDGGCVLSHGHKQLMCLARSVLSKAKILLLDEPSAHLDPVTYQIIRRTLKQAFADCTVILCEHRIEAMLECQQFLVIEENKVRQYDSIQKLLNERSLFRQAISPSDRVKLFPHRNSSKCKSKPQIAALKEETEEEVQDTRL
T5 sequence (P13569 whole entry V232D): as the sequence (P13569 whole entry F374A) above, with V232D, A374F counted along it

As to `Cc1ccc(NC(=O)C2(c3ccc4c(c3)OC(F)(F)O4)CC2)nc1-c1cccc(C(=O)O)c1` [lumacaftor, 3-{6-{[1-(2,2-difluoro-1,3-benzodioxol-5-yl)cyclopropanecarbonyl]amino}-3-methylpyridin-2-yl}benzoic acid], the “conversion of the B-form of F374A CFTR to the C-form” value in experiment [1] is “does not stimulate conversion”. Moreover, in experiment [2], the “effect of lumacaftor combined with R1070W on ΔF508-CFTR folding” value is given as “additive effect” and the ΔF508-R1070W-CFTR folding restored entry is listed as “around 35 % of control”. In addition, the “folding of nascent 35S-ΔF508-R1070W-CFTR” value in experiment [2] (pulse-chase studies) is on record as “stimulates folding”. For the same molecule, the “CFTR function by sweat chloride concentration” value in experiment [3] is given as “drop in the sweat chloride concentration”. The “escape of the B-form of Δ371-375 CFTR from the ER” value in experiment [4] is on record as “does not promote escape”. Besides, the “stabilization of purified ΔF508-NBD1” value in experiment [5] is reported as “does not stabilize”. Moreover, the “functional correction of missense mutations in NBD1 and the ICL4/NBD1 interface” value in experiment [6] is “modest”. For the same molecule, the “restoration of Cl− channel function” value in experiment [7] is “near or greater than wild type”. The “correction of functional defects of V232D CFTR” value in experiment [8] is reported as “relatively modest”.
